Kd data for one compound are collected here from ChEMBL document CHEMBL1152904, “Synthesis and characterization of a BODIPY-labeled derivative of Soraphen A that binds to acetyl-CoA carboxylase” (Bioorg Med Chem Lett, 2009).

This assay deals with Acetyl-CoA carboxylase 2 (Homo sapiens, UniProt O00763). Kind of assay: Binding affinity to human His-tagged acetyl-CoA-carboxylase biotin carboxylase domain. Particulars: read-out: Kd(app).
Chain of Acetyl-CoA carboxylase 2 (O00763 whole entry, the tested form may be a part): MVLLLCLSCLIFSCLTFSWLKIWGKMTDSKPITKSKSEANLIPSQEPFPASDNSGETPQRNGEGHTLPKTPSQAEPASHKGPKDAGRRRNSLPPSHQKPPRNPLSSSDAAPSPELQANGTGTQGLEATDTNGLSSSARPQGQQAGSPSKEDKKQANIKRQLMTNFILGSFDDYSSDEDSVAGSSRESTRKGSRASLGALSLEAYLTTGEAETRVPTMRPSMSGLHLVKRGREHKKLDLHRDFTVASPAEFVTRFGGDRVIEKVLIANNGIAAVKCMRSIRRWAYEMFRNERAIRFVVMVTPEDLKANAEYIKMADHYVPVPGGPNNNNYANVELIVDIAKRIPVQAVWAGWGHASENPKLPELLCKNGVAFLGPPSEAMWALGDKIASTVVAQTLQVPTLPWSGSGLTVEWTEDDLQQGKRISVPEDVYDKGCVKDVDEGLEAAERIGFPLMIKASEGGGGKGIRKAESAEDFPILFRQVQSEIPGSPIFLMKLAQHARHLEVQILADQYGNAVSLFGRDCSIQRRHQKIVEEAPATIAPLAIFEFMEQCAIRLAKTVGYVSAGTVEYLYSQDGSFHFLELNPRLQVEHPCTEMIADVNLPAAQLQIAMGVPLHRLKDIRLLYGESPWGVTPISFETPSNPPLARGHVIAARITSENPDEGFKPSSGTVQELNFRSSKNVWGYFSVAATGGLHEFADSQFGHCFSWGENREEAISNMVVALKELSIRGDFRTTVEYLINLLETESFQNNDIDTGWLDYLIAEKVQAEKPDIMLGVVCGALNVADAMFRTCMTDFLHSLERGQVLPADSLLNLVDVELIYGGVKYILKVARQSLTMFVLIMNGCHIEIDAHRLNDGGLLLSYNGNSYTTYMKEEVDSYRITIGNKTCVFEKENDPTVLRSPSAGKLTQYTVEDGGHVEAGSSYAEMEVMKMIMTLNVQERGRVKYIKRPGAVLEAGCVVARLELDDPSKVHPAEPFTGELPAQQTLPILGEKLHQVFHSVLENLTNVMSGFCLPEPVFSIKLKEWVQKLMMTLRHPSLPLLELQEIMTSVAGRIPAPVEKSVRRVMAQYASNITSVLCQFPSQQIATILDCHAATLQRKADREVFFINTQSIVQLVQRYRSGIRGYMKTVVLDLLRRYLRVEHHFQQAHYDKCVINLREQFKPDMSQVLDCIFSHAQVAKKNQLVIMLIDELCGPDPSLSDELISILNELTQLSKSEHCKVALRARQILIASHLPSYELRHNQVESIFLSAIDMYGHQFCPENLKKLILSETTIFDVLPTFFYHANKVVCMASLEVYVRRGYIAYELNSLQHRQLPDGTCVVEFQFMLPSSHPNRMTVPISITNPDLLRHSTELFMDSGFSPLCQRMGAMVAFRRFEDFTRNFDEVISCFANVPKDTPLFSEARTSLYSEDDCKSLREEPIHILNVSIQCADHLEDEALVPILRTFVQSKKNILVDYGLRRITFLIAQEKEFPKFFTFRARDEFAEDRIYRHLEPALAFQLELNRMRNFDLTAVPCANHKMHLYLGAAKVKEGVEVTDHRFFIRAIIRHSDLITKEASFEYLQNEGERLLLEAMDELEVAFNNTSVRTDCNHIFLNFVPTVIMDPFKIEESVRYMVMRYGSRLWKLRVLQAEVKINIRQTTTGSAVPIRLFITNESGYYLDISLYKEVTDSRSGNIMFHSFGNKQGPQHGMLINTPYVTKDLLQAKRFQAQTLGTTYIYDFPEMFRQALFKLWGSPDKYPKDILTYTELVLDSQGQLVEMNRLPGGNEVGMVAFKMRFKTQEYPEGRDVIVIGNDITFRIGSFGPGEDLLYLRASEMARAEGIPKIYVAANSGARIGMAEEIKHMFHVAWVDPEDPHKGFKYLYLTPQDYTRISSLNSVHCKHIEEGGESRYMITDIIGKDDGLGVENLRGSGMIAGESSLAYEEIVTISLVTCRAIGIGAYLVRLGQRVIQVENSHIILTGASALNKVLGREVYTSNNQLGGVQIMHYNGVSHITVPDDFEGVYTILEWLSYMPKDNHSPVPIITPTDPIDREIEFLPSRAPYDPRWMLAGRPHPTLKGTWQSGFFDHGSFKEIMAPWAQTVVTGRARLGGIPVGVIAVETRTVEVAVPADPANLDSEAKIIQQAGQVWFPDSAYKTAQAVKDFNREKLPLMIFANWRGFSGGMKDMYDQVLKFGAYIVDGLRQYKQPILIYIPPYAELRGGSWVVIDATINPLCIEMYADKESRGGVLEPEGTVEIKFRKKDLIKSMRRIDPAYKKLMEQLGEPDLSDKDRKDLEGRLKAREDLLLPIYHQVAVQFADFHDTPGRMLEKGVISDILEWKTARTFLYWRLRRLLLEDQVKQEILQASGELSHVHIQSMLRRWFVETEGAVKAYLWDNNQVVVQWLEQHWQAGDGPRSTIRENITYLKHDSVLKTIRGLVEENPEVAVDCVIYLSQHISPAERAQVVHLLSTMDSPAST

Regarding `CO[C@H]1CCCC[C@@H](c2ccccc2)OC(=O)[C@@H](C)[C@@]2(O)O[C@H]([C@@H](C)[C@H](O)[C@H]2OC)[C@@H](C)/C=C/[C@H]1OC(=O)CCC1=[N+]2C(=Cc3c(C)cc(C)n3[B-]2(F)F)C=C1`, the Kd was 3 nM.
